Laboratory results reported in the NIST ThermoML archive (doi:10.1016/j.jct.2017.08.004).

Experiments:
[1] = for molar entropy: 101.33 kPa
[2] = Molar enthalpy of transition or fusion; conditions: Crystal; DSC

OC[C@@H](O)C(O)[C@H](O)CO [D-arabitol]
[1]
Conditions	molar entropy [J/K/mol]
1 K, Crystal, relaxation calorimetry	0.0005801
2 K, Crystal, relaxation calorimetry	0.002268
3 K, Crystal, relaxation calorimetry	0.006257
4 K, Crystal, relaxation calorimetry	0.01391
5 K, Crystal, relaxation calorimetry	0.02686
6 K, Crystal, relaxation calorimetry	0.04705
7 K, Crystal, relaxation calorimetry	0.07698
8 K, Crystal, relaxation calorimetry	0.1198
9 K, Crystal, relaxation calorimetry	0.179
10 K, Crystal, relaxation calorimetry	0.2576
15 K, Crystal, relaxation calorimetry	1.012
20 K, Crystal, relaxation calorimetry	2.431
25 K, Crystal, relaxation calorimetry	4.457
30 K, Crystal, relaxation calorimetry	6.97
35 K, Crystal, relaxation calorimetry	9.854
40 K, Crystal, relaxation calorimetry	13.02
45 K, Crystal, relaxation calorimetry	16.41
50 K, Crystal, relaxation calorimetry	19.95
55 K, Crystal, relaxation calorimetry	23.61
60 K, Crystal, relaxation calorimetry	27.36
65 K, Crystal, relaxation calorimetry	31.16
70 K, Crystal, relaxation calorimetry	35.01
75 K, Crystal, relaxation calorimetry	38.9
80 K, Crystal, relaxation calorimetry	42.79
85 K, Crystal, relaxation calorimetry	46.7
90 K, Crystal, relaxation calorimetry	50.61
95 K, Crystal, relaxation calorimetry	54.52
100 K, Crystal, relaxation calorimetry	58.42
110 K, Crystal, relaxation calorimetry	66.18
120 K, Crystal, relaxation calorimetry	73.87
130 K, Crystal, relaxation calorimetry	81.48
140 K, Crystal, relaxation calorimetry	89.01
150 K, Crystal, relaxation calorimetry	96.45
160 K, Crystal, relaxation calorimetry	103.81
170 K, Crystal, relaxation calorimetry	111.08
180 K, Crystal, relaxation calorimetry	118.28
190 K, Crystal, relaxation calorimetry	125.41
200 K, Crystal, relaxation calorimetry	132.48
210 K, Crystal, relaxation calorimetry	139.49
220 K, Crystal, relaxation calorimetry	146.44
230 K, Crystal, relaxation calorimetry	153.36
240 K, Crystal, relaxation calorimetry	160.23
250 K, Crystal, relaxation calorimetry	167.08
260 K, Crystal, relaxation calorimetry	173.89
270 K, Crystal, relaxation calorimetry	180.69
273.15 K, Crystal, relaxation calorimetry	182.82
280 K, Crystal, relaxation calorimetry	187.46
290 K, Crystal, relaxation calorimetry	194.23
298.15 K, Crystal, relaxation calorimetry	199.73
300 K, Crystal, relaxation calorimetry	200.98
305 K, Crystal, Small sample (50 mg) DSC	204.36
310 K, Crystal, Small sample (50 mg) DSC	207.75
315 K, Crystal, Small sample (50 mg) DSC	211.16
320 K, Crystal, Small sample (50 mg) DSC	214.58
325 K, Crystal, Small sample (50 mg) DSC	218.03
330 K, Crystal, Small sample (50 mg) DSC	221.5
335 K, Crystal, Small sample (50 mg) DSC	224.99
340 K, Crystal, Small sample (50 mg) DSC	228.51
345 K, Crystal, Small sample (50 mg) DSC	232.07
350 K, Crystal, Small sample (50 mg) DSC	235.68
355 K, Crystal, Small sample (50 mg) DSC	239.39
360 K, Crystal, Small sample (50 mg) DSC	243.37
365 K, Crystal, Small sample (50 mg) DSC	248.05
390 K, Liquid, Small sample (50 mg) DSC	369.2
395 K, Liquid, Small sample (50 mg) DSC	374.96
400 K, Liquid, Small sample (50 mg) DSC	380.58
405 K, Liquid, Small sample (50 mg) DSC	386.13
410 K, Liquid, Small sample (50 mg) DSC	391.63
415 K, Liquid, Small sample (50 mg) DSC	397.09
420 K, Liquid, Small sample (50 mg) DSC	402.53

Conditions	Normal melting temperature [°C]
[1], Crystal, DTA	99.23

Conditions	Molar enthalpy of transition or fusion [kJ/mol]
[2]	39.6
